{"source": "patent US8974737B2", "about": "“Space Disinfection” (Saban Ventures PTY Limited, priority 2005, dated 2015)", "key": {"Pseudomonas aeruginosa": {"tested_on": "Pseudomonas aeruginosa", "settings": "8 cubic meters", "text": "(§1) The components of the device included a nebuliser array, (6×2 cm diameter transducers in a circular array), a heater element, a first and second fan and a dehumidifier system. The dehumidifier used had been a small air conditioning unit positioned appropriately within the space. The purpose of the first fan was to propel nanoparticles from the heater into the space and the purpose of the second fan was to ensure an equal distribution of the aerosol to all surfaces within the space.\n(§2) Tests were conducted in an 8 cubic meter volume of cubic shape.\n(§3) Samples were coated with an inoculum at levels of approximately log 6 and air dried for 2 hours on the plastic petri dish (Techno-Plas, Australia) in a laminar flow cabinet. The samples were placed in various positions in the room including on the walls, floor and ceiling.\n(§4) Unless otherwise stated, the operating conditions were: • Solution: 35% peroxide • Temp: 25 degrees • RH: fluctuated 45% to ˜65%. Sometimes 75% • Nebulizer array 2.4 MHz • Peroxide vapour: 300-500 ppm • Air flow post heater: 400-600 cubic meters per hour. • Heater Temp: 80-90 degrees • Peroxide delivery: Optimally approximately 0.75 gram per cubic meter per minute, ie […] for the 8 cubic meter room.\nThe dishes and lids are specifically designed to allow gas exchange with an incubator environment while keeping the dish free from external microbial contamination."}, "Aspergillus niger [1]": {"tested_on": "Aspergillus niger", "settings": "8 cubic meters", "text": "as §1, §2, §3, §4"}, "[2]": {"tested_on": "Bacillus stearothermophillus", "settings": "at 550 ppm; on both the walls and floor", "description": "as §3, §4"}, "Aspergillus niger [3]": {"tested_on": "Aspergillus niger", "settings": "69 cubic meters, peroxide vapour 500 ppm, contact time 30 min", "description": "as §3, §4"}, "[4]": {"settings": "closed carriers, peroxide vapour 300 ppm, contact time 20 min"}, "[5]": {"settings": "open carriers, peroxide vapour 50 ppm, contact time 5 min"}, "[6]": {"settings": "open carriers, peroxide vapour 50 ppm, contact time 10 min"}, "[7]": {"settings": "open carriers, peroxide vapour 50 ppm, contact time […]"}, "[8]": {"settings": "open carriers, peroxide vapour 200 ppm, contact time 5 min"}, "[9]": {"settings": "open carriers, peroxide vapour 200 ppm, contact time 10 min"}, "[10]": {"settings": "open carriers, peroxide vapour 200 ppm, contact time 20 min"}, "[11]": {"settings": "open carriers, peroxide vapour 200 ppm, contact time […]"}, "[12]": {"settings": "open carriers, peroxide vapour 350 ppm, contact time 5 min"}, "[13]": {"settings": "open carriers, peroxide vapour 350 ppm, contact time 10 min"}, "[14]": {"settings": "open carriers, peroxide vapour 350 ppm, contact time 20 min"}, "[15]": {"settings": "open carriers, peroxide vapour 350 ppm, contact time […]"}, "[16]": {"settings": "peroxide vapour 250 ppm, contact time 5 min"}, "[17]": {"settings": "peroxide vapour 250 ppm, contact time 10 min"}, "[18]": {"settings": "peroxide vapour 250 ppm, contact time 20 min"}, "[19]": {"settings": "peroxide vapour 250 ppm, contact time 30 min"}, "[20]": {"settings": "peroxide vapour 500 ppm, contact time 5 min"}, "[21]": {"settings": "peroxide vapour 500 ppm, contact time 10 min"}, "[22]": {"settings": "peroxide vapour 500 ppm, contact time 20 min"}, "[23]": {"settings": "peroxide vapour 500 ppm, contact time 30 min"}, "[24]": {"settings": "Table 4, peroxide vapour 350 ppm, contact time 15 min"}, "[25]": {"settings": "Table 4, peroxide vapour 550 ppm, contact time 15 min"}, "[26]": {"settings": "Table 4, peroxide vapour 550 ppm, contact time 20 min"}, "[27]": {"settings": "Table 4, peroxide vapour 550 ppm, contact time 30 min"}}, "note": "Read-outs that look alike come from different tables or passages of the source.", "data": [{"smiles": "OO", "note": "[Peroxide, hydrogen peroxide]", "values": [{"measurement": "Wall (log reduction)", "setting": "Pseudomonas aeruginosa; closed carriers, peroxide vapour 300 ppm, contact time 5 min", "result": 6.7, "unit": "log reduction"}, {"measurement": "Wall (log reduction)", "setting": "Pseudomonas aeruginosa; closed carriers, peroxide vapour 300 ppm, contact time 10 min", "result": 6.3, "unit": "log reduction"}, {"measurement": "Floor (log reduction)", "setting": "Pseudomonas aeruginosa; [4]", "result": 5.8, "unit": "log reduction"}, {"measurement": "Wall (log reduction)", "setting": "Pseudomonas aeruginosa; [4]", "result": 6.7, "unit": "log reduction"}, {"measurement": "Floor (log reduction)", "setting": "Pseudomonas aeruginosa; [5]", "result": "TNTC"}, {"measurement": "Wall (log reduction)", "setting": "Pseudomonas aeruginosa; [5]", "result": 3.6, "unit": "log reduction"}, {"measurement": "Floor (log reduction)", "setting": "Pseudomonas aeruginosa; [6]", "result": "TNTC"}, {"measurement": "Wall (log reduction)", "setting": "Pseudomonas aeruginosa; [6]", "result": 4.3, "unit": "log reduction"}, {"measurement": "Floor (log reduction)", "setting": "Pseudomonas aeruginosa; [7]", "result": "TNTC"}, {"measurement": "Wall (log reduction)", "setting": "Pseudomonas aeruginosa; [7]", "result": 3.5, "unit": "log reduction"}, {"measurement": "Floor (log reduction)", "setting": "Pseudomonas aeruginosa; [8]", "result": 5.2, "unit": "log reduction"}, {"measurement": "Wall (log reduction)", "setting": "Pseudomonas aeruginosa; [8]", "result": 5.7, "unit": "log reduction"}, {"measurement": "Floor (log reduction)", "setting": "Pseudomonas aeruginosa; [9]", "result": 3.4, "unit": "log reduction"}, {"measurement": "Wall (log reduction)", "setting": "Pseudomonas aeruginosa; [9]", "result": 5.7, "unit": "log reduction"}, {"measurement": "Floor (log reduction)", "setting": "Pseudomonas aeruginosa; [10]", "result": 5.7, "unit": "log reduction"}, {"measurement": "Wall (log reduction)", "setting": "Pseudomonas aeruginosa; [10]", "result": 5.7, "unit": "log reduction"}, {"measurement": "Floor (log reduction)", "setting": "Pseudomonas aeruginosa; [11]", "result": 4.4, "unit": "log reduction"}, {"measurement": "Wall (log reduction)", "setting": "Pseudomonas aeruginosa; [11]", "result": 5.7, "unit": "log reduction"}, {"measurement": "Floor (log reduction)", "setting": "Pseudomonas aeruginosa; [12]", "result": 6.1, "unit": "log reduction"}, {"measurement": "Wall (log reduction)", "setting": "Pseudomonas aeruginosa; [12]", "result": 5.8, "unit": "log reduction"}, {"measurement": "Floor (log reduction)", "setting": "Pseudomonas aeruginosa; [13]", "result": 6.1, "unit": "log reduction"}, {"measurement": "Wall (log reduction)", "setting": "Pseudomonas aeruginosa; [13]", "result": 6.1, "unit": "log reduction"}, {"measurement": "Floor (log reduction)", "setting": "Pseudomonas aeruginosa; [14]", "result": 6.1, "unit": "log reduction"}, {"measurement": "Wall (log reduction)", "setting": "Pseudomonas aeruginosa; [14]", "result": 6.1, "unit": "log reduction"}, {"measurement": "Floor (log reduction)", "setting": "Pseudomonas aeruginosa; [15]", "result": 6.1, "unit": "log reduction"}, {"measurement": "Wall (log reduction)", "setting": "Pseudomonas aeruginosa; [15]", "result": 4.4, "unit": "log reduction"}, {"measurement": "Wall (log reduction) Closed carriers", "setting": "Aspergillus niger [1]; [16]", "result": 5.1, "unit": "log reduction"}, {"measurement": "Wall (log reduction) Open carriers", "setting": "Aspergillus niger [1]; [16]", "result": 6.3, "unit": "log reduction"}, {"measurement": "Wall (log reduction) Closed carriers", "setting": "Aspergillus niger [1]; [17]", "result": 6.3, "unit": "log reduction"}, {"measurement": "Wall (log reduction) Open carriers", "setting": "Aspergillus niger [1]; [17]", "result": 6.3, "unit": "log reduction"}, {"measurement": "Wall (log reduction) Closed carriers", "setting": "Aspergillus niger [1]; [18]", "result": 6.3, "unit": "log reduction"}, {"measurement": "Wall (log reduction) Open carriers", "setting": "Aspergillus niger [1]; [18]", "result": 6.3, "unit": "log reduction"}, {"measurement": "Wall (log reduction) Closed carriers", "setting": "Aspergillus niger [1]; [19]", "result": 6.3, "unit": "log reduction"}, {"measurement": "Wall (log reduction) Open carriers", "setting": "Aspergillus niger [1]; [19]", "result": 6.3, "unit": "log reduction"}, {"measurement": "Wall (log reduction) Closed carriers", "setting": "Aspergillus niger [1]; [20]", "result": 6.9, "unit": "log reduction"}, {"measurement": "Wall (log reduction) Open carriers", "setting": "Aspergillus niger [1]; [20]", "result": 6.9, "unit": "log reduction"}, {"measurement": "Wall (log reduction) Closed carriers", "setting": "Aspergillus niger [1]; [21]", "result": 6.9, "unit": "log reduction"}, {"measurement": "Wall (log reduction) Open carriers", "setting": "Aspergillus niger [1]; [21]", "result": 6.9, "unit": "log reduction"}, {"measurement": "Wall (log reduction) Closed carriers", "setting": "Aspergillus niger [1]; [22]", "result": 6.9, "unit": "log reduction"}, {"measurement": "Wall (log reduction) Open carriers", "setting": "Aspergillus niger [1]; [22]", "result": 6.9, "unit": "log reduction"}, {"measurement": "Wall (log reduction) Closed carriers", "setting": "Aspergillus niger [1]; [23]", "result": 6.9, "unit": "log reduction"}, {"measurement": "Wall (log reduction) Open carriers", "setting": "Aspergillus niger [1]; [23]", "result": 6.9, "unit": "log reduction"}, {"measurement": "Floor (log reduction) Closed carriers", "setting": "Aspergillus niger [1]; [24]", "result": 6.1, "unit": "log reduction"}, {"measurement": "Floor (log reduction) Open carriers", "setting": "Aspergillus niger [1]; [24]", "result": 6.5, "unit": "log reduction"}, {"measurement": "Wall (log reduction) Closed carriers", "setting": "Aspergillus niger [1]; [24]", "result": 5.7, "unit": "log reduction"}, {"measurement": "Wall (log reduction) Open carriers", "setting": "Aspergillus niger [1]; [24]", "result": 5.9, "unit": "log reduction"}, {"measurement": "Floor (log reduction) Closed carriers", "setting": "Aspergillus niger [1]; [25]", "result": 6.6, "unit": "log reduction"}, {"measurement": "Floor (log reduction) Open carriers", "setting": "Aspergillus niger [1]; [25]", "result": 6.7, "unit": "log reduction"}, {"measurement": "Wall (log reduction) Closed carriers", "setting": "Aspergillus niger [1]; [25]", "result": 6.3, "unit": "log reduction"}, {"measurement": "Wall (log reduction) Open carriers", "setting": "Aspergillus niger [1]; [25]", "result": 6.7, "unit": "log reduction"}, {"measurement": "Floor (log reduction) Closed carriers", "setting": "Aspergillus niger [1]; [26]", "result": 7.5, "unit": "log reduction"}, {"measurement": "Floor (log reduction) Open carriers", "setting": "Aspergillus niger [1]; [26]", "result": 7.5, "unit": "log reduction"}, {"measurement": "Wall (log reduction) Closed carriers", "setting": "Aspergillus niger [1]; [26]", "result": 7.5, "unit": "log reduction"}, {"measurement": "Wall (log reduction) Open carriers", "setting": "Aspergillus niger [1]; [26]", "result": 7.5, "unit": "log reduction"}, {"measurement": "Floor (log reduction) Closed carriers", "setting": "Aspergillus niger [1]; [27]", "result": 7.5, "unit": "log reduction"}, {"measurement": "Floor (log reduction) Open carriers", "setting": "Aspergillus niger [1]; [27]", "result": 7.5, "unit": "log reduction"}, {"measurement": "Wall (log reduction) Closed carriers", "setting": "Aspergillus niger [1]; [27]", "result": 6.6, "unit": "log reduction"}, {"measurement": "Wall (log reduction) Open carriers", "setting": "Aspergillus niger [1]; [27]", "result": 7.5, "unit": "log reduction"}, {"measurement": "log reductions", "setting": "[2]", "result": "greater than 6 log reductions"}, {"measurement": "Floor (log reduction)", "setting": "Aspergillus niger [3]; closed", "result": 6.7, "unit": "log reduction"}, {"measurement": "Wall (log reduction)", "setting": "Aspergillus niger [3]; closed", "result": 6.7, "unit": "log reduction"}, {"measurement": "Floor (log reduction)", "setting": "Aspergillus niger [3]; open", "result": 6.7, "unit": "log reduction"}, {"measurement": "Wall (log reduction)", "setting": "Aspergillus niger [3]; open", "result": 6.7, "unit": "log reduction"}]}]}
